From patent US12366579B2, “Sulfur-heterocycle exchange chemistry and uses thereof” (University of Virginia Patent Foundation, priority 2019, dated 2025)
“Also recorded” adds a separate entry of the source. One block for each compound: values may come before it.

Assays:
DM93 and HEK293T cells = assay: Proteome-wide profiling of sulfonyl imidazole analogs in live cells; type: cell-based, human; details: 100 μM, 2 hours, 37° C.
Method: A chemical proteomic treatment and analysis protocol was established to evaluate the structural-induced effect on the proteomic coverage of the sulfonyl imidazole analogs. […] Duke Melanoma 93 (DM93) and human embryonic kidney 293T (HEK293T) cells were treated with the probes (100 μM, 2 hours, 37° C.). The cells were harvested, washed and fractionated to expose the proteome. The cytosolic proteome subsequently underwent copper-catalyzed azide-alkyne cycloaddition (CuAAC) with a dethiobiotin PEG-3 azide tag. The tagged proteomes were digested with trypsin lys-C protease mixture, enriched by avidin affinity chromatography, eluted and analyzed by chromatography-tandem high-resolution mass spectrometry (LC-MS). The bioinformatic match of probe modified peptides was filtered with data confidence control criteria of ≥300 Byonic score, ≥3 log probability and ≤5 ppm mass accuracy (amino acid residue modifications of Y, K, N, Q, and W were processed at this point).

human DPP3 (hDPP3) = target: T1, human DPP3 (hDPP3) (Homo sapiens, UniProt Q9NY33); assay: Gel-based competitive chemical proteomic screen with HHS-482, recombinant hDPP3-HEK293T soluble proteomes; type: binding; details: 50 μM fragment, 37° C., 30 min
T1 construct: FLAG (C); host or cells: HEK293T, transient transfection; soluble proteome used unpurified
T1 sequence (Q9NY33 1-737): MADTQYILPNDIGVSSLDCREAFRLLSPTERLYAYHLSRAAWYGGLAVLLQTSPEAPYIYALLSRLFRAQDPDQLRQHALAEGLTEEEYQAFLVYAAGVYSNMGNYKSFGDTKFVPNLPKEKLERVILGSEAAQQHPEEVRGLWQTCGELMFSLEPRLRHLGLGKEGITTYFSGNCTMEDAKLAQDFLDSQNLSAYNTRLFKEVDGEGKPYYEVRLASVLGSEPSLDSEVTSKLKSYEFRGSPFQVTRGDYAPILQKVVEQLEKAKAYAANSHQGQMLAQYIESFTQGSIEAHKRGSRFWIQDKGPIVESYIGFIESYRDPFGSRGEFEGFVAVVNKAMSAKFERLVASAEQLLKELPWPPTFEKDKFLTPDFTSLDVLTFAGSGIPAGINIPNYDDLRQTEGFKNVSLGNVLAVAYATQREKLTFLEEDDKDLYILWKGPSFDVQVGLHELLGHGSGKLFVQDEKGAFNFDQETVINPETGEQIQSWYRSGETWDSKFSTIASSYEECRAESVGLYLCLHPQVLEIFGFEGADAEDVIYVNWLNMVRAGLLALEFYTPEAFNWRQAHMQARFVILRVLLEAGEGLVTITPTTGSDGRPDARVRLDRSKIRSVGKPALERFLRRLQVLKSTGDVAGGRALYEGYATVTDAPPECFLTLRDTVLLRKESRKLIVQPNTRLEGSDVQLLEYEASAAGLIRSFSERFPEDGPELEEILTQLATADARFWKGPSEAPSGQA
Method: Gel-Based Chemical Proteomic Assay
Cell pellets were lysed in PBS and fractionated (100,000×g, 45 min, 4° C.) to generate soluble and membrane fractions. Protein concentrations were determined using Bio-Rad DC protein assay (Bio-Rad Laboratories, Inc., Hercules, California, United States of America), and adjusted to 1 mgml^−1 in PBS. Proteome samples (49 μl aliquots) were treated with DMSO vehicle or indicated concentration of SuTEx fragment (1 μL, 50× stock in DMSO) for 30 min at 37° C. Samples were then treated with HHS-482 probe (1 μL, 2.5 mM stock in DMSO) for 30 min at 37° C. Probe labeled samples were conjugated to rhodamine-azide (1 μL, 1.25 mM stock; final concentration of 25 μM) by copper-catalyzed azide-alkyne cycloadditions (CuAAC) for 1 h at room temperature followed by SDS-PAGE and in-gel fluorescence scanning as previously described^57.

DM93 soluble proteomes = assay: Proteome-wide competitive chemical proteomics of SuTEx fragments vs HHS-482; type: binding, human; details: fragment 50 μM, 30 min, 37° C.
Method: Heavy and light proteomes (432 μl of each) were diluted to 2.3 mg ml^−1 in PBS and sample aliquots (432 μl) were treated with SuTEx fragment at the indicated concentrations (5 μl, 100× stock in DMSO), mixed gently and incubated for 30 min at 37° C. Samples were then treated with HHS-482 (5 μL, 5 mM stock in DMSO) for 30 min at 37° C. Probe-modified proteomes were conjugated to desthiobiotin-PEG3-azide followed by enrichment of probe-modified peptides for nano-electrospray ionization-LC-MS/MS analyses as previously described^57.
The chemical proteomic method for functional tyrosine profiling^72 was tailored to investigate AG/LG effects on SuTEx fragment reactivity in complex proteomes. In brief, isotopically light and heavy soluble proteomes from DM93 melanoma cells cultured by stable isotopic labeling by amino acids in cell culture (SILAC^80) media were used for quantitative liquid chromatography-mass spectrometry (LC-MS) studies. Light and heavy DM93 proteomes were treated with dimethyl sulfoxide (DMSO) vehicle or SuTEx fragment (50 μM, 30 min, 37° C.), respectively, followed by labeling with the tyrosine-reactive probe HHS-482 described hereinabove (50 μM, 30 min, 37° C.) and copper-catalyzed azide-alkyne cycloaddition (CuAAC) conjugation of a desthiobiotin-azide enrichment tag. Proteomes were digested with trypsin protease, HHS-482-modified peptides enriched by avidin chromatography and analyzed by high-resolution LC-MS/MS and bioinformatics as described hereinabove.
To evaluate substituent effects on proteome activity, reactivity profiles of each respective SuTEx fragment were compared across >1500 total distinct HHS-482-modified tyrosine sites from >650 detected proteins. Fragments were screened across independent biological replicates (n=2-3) and high-quality tyrosine site annotations were identified by detection in at least a single biological replicate from each fragment dataset, probe-specific enrichment (HHS-482 probe/DMSO SILAC ratio (SR)>5), and quality control confidence criteria of ≥300 Byonic score^31, […] protein false discovery rate (FDR), and ≤5 ppm mass accuracy in order to minimize the potential for false positives^72. SILAC ratios (SR) from competitive studies (Light-DMSO/Heavy-fragment) were used to identify fragment-competed tyrosine residues as sites showing >75% reduction in enrichment by HHS-482 compared with DMSO vehicle control (i.e. liganded tyrosines, SR>4). In total, 305 liganded tyrosines on 213 distinct proteins were identified, corresponding to ˜30% and ˜44% of total quantified tyrosines and proteins, respectively. […]

[1] = HPLC assay for solution reactivity of sulfonyl triazole fragments with p-cresol; type: physicochemical; details: HPLC assay, TMG base
Method: HPLC Assay for Profiling Solution Reactivity and Stability of Sulfonyl Triazole Fragments
The following reagents were prepared and stored on ice prior to use. 0.1 M solution of caffeine in acetonitrile, 1.0 M solution of n-butylamine, p-cresol, tetramethylguanidine […], 1 M HOAc in ACN and 10 mM solution of SuTEx fragment in DMF-ACN mixture (10:90, v/v). 500 μL of fragment solution was transferred to a dram vial on ice. To the mixture, 5.5 μL of TMG and 5.5 μL of p-cresol or n-butylamine was added and solutions were stirred on ice for 6 h. To monitor reactivity, 50 μL aliquots were removed at indicated time points and quenched with 10 μL of a 1:1 mixture of caffeine and HOAc. Samples were injected (1 μL) and analyzed by reverse-phase HPLC on a Shimadzu 1100 Series spectrometer (Shimadzu, Kyoto, Japan) with UV detection at 254 nm. Reaction progress was evaluated by monitoring consumption of starting material (SuTEx fragment) normalized to caffeine standard. Chromatographic separation was performed using a Phenomenex Kinetex C18 column (2.6 μm, 50×4.6 mm) (Phenomenex, Torrance, California, United States of America). Mobile phases A and B were composed of H2O+0.1% HOAc and ACN+0.1% HOAc, respectively. Samples were analyzed using the following analytical conditions: using a flow rate of 0.8 ml min^−1, the gradient was as follows: 0-0.5 min, 15% B; 0.5-6.5 min 85% B; 6.5-7 min 100% B: 7-8.5 min 100% B; 8.5-9 min 15% B; 9-9.8 min 15% B.

[2] = target: T2, recombinant GSTP1 lysates (Homo sapiens, UniProt P09211); assay: GSTP1 biochemical substrate assay (GSH conjugation to BDNB); details: negative control probes; highest concentration tested 100 μM
T2 construct: FLAG (C); host or cells: HEK293T, transient transfection; soluble proteome used unpurified
T2 sequence (P09211 whole entry): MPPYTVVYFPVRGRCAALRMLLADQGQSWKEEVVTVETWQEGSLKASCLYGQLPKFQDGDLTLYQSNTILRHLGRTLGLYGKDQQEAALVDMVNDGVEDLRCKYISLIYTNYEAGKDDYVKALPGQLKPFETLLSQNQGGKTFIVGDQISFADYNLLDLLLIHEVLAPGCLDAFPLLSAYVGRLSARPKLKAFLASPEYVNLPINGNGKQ
Method: GSTP1 Biochemical Substrate Assay
Recombinant GSTP1-HEK293T soluble cell proteomes were diluted to 1 mg ml^−1 in assay buffer (100 mM NaH2PO4, pH 7.0). Samples were treated with inhibitor at indicated concentrations for 30 min at 37° C. GSH stock solution (250 mM in water) was diluted to 4 mM in assay buffer and 25 μl of diluted GSH solution was added to each sample. A substrate stock solution of 75 mM 1-bromo-2,4-dinitrobenzene […] in ethanol was diluted to 2 mM in assay buffer. Samples (25 μl) were aliquoted into a 96-well plate and spun briefly via centrifuge. Next, 50 μl of 2 mM BDNB was added to each well and the reaction was monitored in kinetic mode by measuring absorbance at 340 nm for 10 min on a BMG Labtech CLARIOstar plate reader (BMG Labtech, Cary, North Carolina, United States of America).

A549 cells = assay: Chemical phosphoproteomics of pervanadate-activated cells by SuTEx probe labeling (SILAC); type: cell-based, human; details: pervanadate 100 μM, 30 min, HHS-475 100 μM
Method: Pervanadate (100 mM) was prepared as previously described^41 by mixing 100 μL of sodium orthovanadate (100 mM Na3VO4, New England BioLabs #P0758S, Ipswich, Massachusetts, United States of America) with 1 μL of hydrogen peroxide (H2O2, 30% v/v in water) on ice. […] After pervanadate treatment, cells were washed twice with cold PBS followed by harvest. Cell pellets were resuspended in PBS supplemented with protease and phosphatase inhibitor mini tablets (Thermo Scientific #A32959; ThermoFisher Scientific, Waltham, Massachusetts, United States of America) and then lysed by sonication (3×1 sec pulse, 20% amplitude). For CTNND1 western blot studies, cell pellets were lysed in NP40 Cell Lysis Buffer (#FNN0021, Invitrogen, Carlsbad, California, United States of America) supplemented with protease/phosphatase inhibitor tablets. Cell lysates were separated via centrifugation at 100,000×g for 45 min at 4° C. for western blot or chemical proteomic studies. Note: pervanadate treatments are performed on live cells but SuTEx probe labeling occurs in proteomes in vitro.
Proteomes from cells treated with pervanadate activation conditions (100 μM, 30 min) were labeled with HHS-475 or HHS-482 (100 μM, 30 min) followed by CuAAC with desthiobiotin and quantitative LC-MS to evaluate how phosphorylation status affected SuTEx probe labeling. […] In total ˜2,200 probe-modified tyrosine sites were detected across ˜1,000 proteins using both HHS-475 and HHS-482 that were further separated into pervanadate-sensitive (PerS, SR≥2) and -insensitive groups (PerI, SR<2). The probe-modified tyrosines found in the PerS group appeared to be enriched for annotated phosphotyrosine sites (HTP≥10 in PhosphoSitePlus, see FIGS. 6C and 18) and represented only a small fraction of all unique HHS-475- and HHS-482-modified tyrosines detected by chemical proteomics (˜3%, 67 sites). […]

Compound: C#CCNC(=O)c1ccc(S(=O)(=O)n2ccnc2)cc1 [HHS-Im-01, 4-((1H-imidazol-1-yl)sulfonyl)-N-(prop-2-yn-1-yl)benzamide]
Y/K specificity (DM93 and HEK293T cells): 0.77
overall reactivity towards tyrosine and lysine residues (number of sites) (DM93 and HEK293T cells): 329

competition against recombinant DPP3 (human DPP3 (hDPP3); also substantial proteome cross-reactivity): potent competition
Compound: O=S(=O)(c1ccc(F)cc1)n1cnc(-c2ccc(C(F)(F)F)cc2)n1 [JWB150, 1-((4-Fluorophenyl)sulfonyl)-3-(4-(trifluoromethyl)phenyl)-1H-1,2,4-triazole]
liganded tyrosine frequency (SR>4) (DM93 soluble proteomes): > 25%
solution reactivity with p-cresol [1]: comparable reaction

Compound: O=S(=O)(C1CC1)n1cnc(-c2ccncc2)n1 [JWB191, 4-(1-(Cyclopropylsulfonyl)-1H-1,2,4-triazol-3-yl)pyridine]
inhibitory activity against GSTP1 [2]: lack of activity; also recorded: did not show inhibitory activity

blockade of DPP3 probe (HHS-482) labeling (human DPP3 (hDPP3)): ~50%
Compound: O=S(=O)(c1ccc(-c2ccccc2)cc1)n1cnc(-c2ccncc2)n1 [JWB202, 4-(1-([1,1′-Biphenyl]-4-ylsulfonyl)-1H-1,2,4-triazol-3-yl)pyridine]

Compound: C#CCNC(=O)c1ccc(S(=O)(=O)n2cnc(C(F)(F)F)c2)cc1 [KY-Im-TFM, N-(prop-2-yn-1-yl)-4-((4-(trifluoromethyl)-1H-imidazol-1-yl)sulfonyl)benzamide]
Y/K specificity (DM93 and HEK293T cells): 3.58
overall reactivity towards tyrosine and lysine residues (number of sites) (DM93 and HEK293T cells): 338

Compound: pervanadate
SILAC ratio (SR, light PBS/heavy pervanadate) of SuTEx probe labeling at CTNND1 Y228 (A549 cells): 3.3
SILAC ratio (SR, light PBS/heavy pervanadate) of SuTEx probe labeling at PKM Y105 (A549 cells): 1.1
SILAC ratio (SR, light PBS/heavy pervanadate) of SuTEx probe labeling at STAT3 Y705 (A549 cells): 2.3
